Test results: US11242327B2, “Analgesic compounds” (RECURIUM IP HOLDINGS, LLC, priority 2017, dated 2022)

Key:
male Sprague-Dawley rats [1] = assay: Osteoarthritis Pain Test (MIA, mechanical hyperalgesia); type: in vivo; details: rat; for joint compression threshold, Day 3, 1 h: Day 3, 1 h post-dosing; for joint compression threshold, Day 3, 2 h: Day 3, 2 h post-dosing; for joint compression threshold, Day 3, 4 h: Day 3, 4 h post-dosing; for joint compression threshold, Day 6, 1 h: Day 6, 1 h post-dosing; for joint compression threshold, Day 6, 2 h: Day 6, 2 h post-dosing; for joint compression threshold, Day 6, 4 h: Day 6, 4 h post-dosing; for joint compression threshold, Day 0, 1 h: Day 0, 1 h post-dosing; for joint compression threshold, Day 0, 2 h: Day 0, 2 h post-dosing; for joint compression threshold, Day 0, 4 h: Day 0, 4 h post-dosing
Method: Osteoarthritis pain was induced in non-fasted male Sprague-Dawley rats weighing 150-250 g by injecting 2 mg of monosodium iodoacetate (MIA) into the left knee joint. Mechanical hyperalgesia was measured using a digital Randall-Selitto device (dRS; IITC Life Sciences©; Woodland Hills, Calif.). Animals were allowed to acclimate to the testing room for a minimum of 15 minutes before testing. Animals were placed in a restraint sling that suspended the animal, leaving the hind limbs available for testing. The stimulus was applied to the knee joint by a blunt tip and pressure was applied gradually over approximately 10 seconds. Joint compression threshold values were recorded at the first observed nocifensive behavior (vocalization, struggle, or withdrawal). One reading per joint was taken at each time point, and a maximum stimulus cutoff of 500 grams was used to prevent injury to the animal. Mechanical hyperalgesia was assessed prior to MIA injection, and again 14 days later. After 14 days, test or control articles were administered once daily for 7 days with mechanical hyperalgesia assessed prior to dosing, 1, 2, and 4 hours post-dosing on days 0, 3, and 6. Test compounds were administered orally at concentrations of 3, 10, 30 or 100 mg/kg and celecoxib was administered orally at a concentration of 30 mg/kg. The control group received the vehicle (sterile water). After day 0, groups receiving the 100 mg/kg dose were reduced to a dose of 3 mg/kg. In Table 5, ‘A’ designates ≥375 grams of joint compression, ‘B’ designates ≥325 and <375 grams of joint compression, and ‘C’ designates <325 grams of joint compression.
The results provided in Table 5 are for oral administration in rats.

male Sprague-Dawley rats [2] = assay: Spinal Nerve Ligation (SNL) Neuropathic Pain Test; type: in vivo; details: rat, oral; for 50% response threshold, 1 h: 1 h after administration; for 50% response threshold, 2 h: 2 h after administration; for 50% response threshold, 4 h: 4 h after administration
Method: Neuropathy was induced in non-fasted male Sprague-Dawley rats weighing 75-100 g by surgically ligating the 4th and 5th lumbar spinal nerves (L4 and L5), a procedure also known as spinal nerve ligation (SNL). Animals were placed in individual acrylic chambers on a metal mesh surface and allowed to acclimate to their surroundings for a minimum of 15 minutes before testing. Mechanical sensitivity was assessed using 8 Semmes-Weinstein filaments (Stoelting©; Wood Dale, Ill., USA) with varying stiffness (0.4, 0.6, 1.0, 2.0, 4.0, 6.0, 8.0, and 15 g) according to an up-down method to determine 50% response thresholds. Each filament was presented perpendicular to the plantar surface with sufficient force to cause slight buckling against the paw and held for approximately 6 seconds or until a positive response is noted (paw sharply withdrawn). Testing was initiated with the 2.0 g filament. In the absence of a paw withdrawal response, the next stronger stimulus was presented. In the event of paw withdrawal, the next weaker stimulus was used. This process was repeated until 4 responses after the initial change in response (no response to positive response or positive response to no response) were obtained. […] The 50% response threshold was calculated using the formula: 50% response threshold (g)=(10^(Xf+kδ))/10,000;
Xf=value (in log units) of the final von Frey filament used;
k=tabular value for the pattern of positive/negative responses (See Chaplan, et al. “Quantitative Assessment of Tactile Allodynia in the Rat Paw” J. Neurosci. Meth. 53.1 (1994): 56-63);
[…] =mean difference (in log units) between stimuli.
The mean and standard error of the mean (SEM) were determined for each paw for each treatment group at each time point. Thresholds were determined prior to surgery and again 14 days later. After 14 days, test or control compounds were administered and thresholds were again determined 1, 2, and 4 hours after compound administration. Median response thresholds in compound-treated animals were compared to those in vehicle treated animals to determine anti-allodynic efficacy of test and control compounds. Test compounds were administered orally at concentrations of 10, 30 or 100 mg/kg and gabapentin was administered orally at a concentration of 100 mg/kg. The control group received the vehicle (sterile water). In Table 7, ‘A’ designates a 50% threshold of ≥8 grams, ‘B’ designates a 50% threshold of ≥6 and <8 grams, and ‘C’ designates a 50% threshold of <6 grams.
The results provided in Table 7 are for oral administration in rats.

Opiate δ2 = Opiate δ2 (Homo sapiens, UniProt P41143); assay: NSAIDS and Opioid Receptor Test: Opiate δ2; type: binding; details: 10 μM
Sequence of Opiate δ2 (P41143 whole entry): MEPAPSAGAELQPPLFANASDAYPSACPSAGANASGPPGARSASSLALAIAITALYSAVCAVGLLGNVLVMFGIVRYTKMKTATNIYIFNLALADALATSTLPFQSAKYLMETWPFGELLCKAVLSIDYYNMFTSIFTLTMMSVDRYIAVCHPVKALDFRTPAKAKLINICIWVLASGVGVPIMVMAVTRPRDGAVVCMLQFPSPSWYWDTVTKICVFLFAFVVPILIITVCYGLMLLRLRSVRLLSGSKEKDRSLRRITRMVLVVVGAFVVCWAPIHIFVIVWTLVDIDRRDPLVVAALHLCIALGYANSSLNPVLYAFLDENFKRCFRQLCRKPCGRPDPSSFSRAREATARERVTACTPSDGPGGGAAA
Method: (§1) Compounds were screened as DMSO solutions at 10 μM, 100 μM, or 200 μM and values represent percent inhibition of control-specific binding. […] As NSAID and opioid mechanisms of action are precluded, a person of ordinary skill in the art understands that undesirable side effects associated with inhibition of COX receptors in NSAIDs and activation of opiate receptors in opioids can be avoided by compounds described herein. Furthermore, opioids are known to lose their analgesic potency after to continued administration. (See Benyamin, et al. “Opioid Complications and Side Effects” Pain Physician 11 (2008): S105-S120). As the data indicates compounds described herein have a different mechanism action compared to opioids, a person of ordinary skill in the art would appreciate that compounds described herein would not be expected to lose their analgesic potency like opioids after continued admininistration.

Opiate κ = Opiate κ (Homo sapiens, UniProt P41145); assay: NSAIDS and Opioid Receptor Test: Opiate κ; type: binding; details: 10 μM
Sequence of Opiate κ (P41145 whole entry): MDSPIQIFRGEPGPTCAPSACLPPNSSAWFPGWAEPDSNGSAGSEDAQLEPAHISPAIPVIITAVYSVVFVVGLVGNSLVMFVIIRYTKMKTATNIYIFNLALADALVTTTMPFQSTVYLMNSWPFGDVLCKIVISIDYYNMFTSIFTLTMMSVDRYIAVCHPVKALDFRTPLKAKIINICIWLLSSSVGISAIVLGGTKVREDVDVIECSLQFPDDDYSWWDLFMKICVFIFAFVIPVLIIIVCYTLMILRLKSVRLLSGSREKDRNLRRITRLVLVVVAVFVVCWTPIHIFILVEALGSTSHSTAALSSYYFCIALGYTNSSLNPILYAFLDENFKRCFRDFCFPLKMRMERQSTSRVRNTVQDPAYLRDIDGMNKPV
Method: as §1

[3] = oral once daily, 3 mg/kg (group had 100 mg/kg on day 0)

Cc1sc(C23CC(N)(C2)C3)nc1C(F)(F)F.Cl [Compound 2, 3-(5-Methyl-4-(trifluoromethyl)thiazol-2-yl)bicyclo[1.1.1]pentan-1-amine hydrochloride] was tested, and the “joint compression threshold, Day 3, 1 h” value (male Sprague-Dawley rats [1]; [3]) was “A (≥375 grams of joint compression)”, the “joint compression threshold, Day 3, 2 h” value (male Sprague-Dawley rats [1]; [3]) was “A (≥375 grams of joint compression)” and the “joint compression threshold, Day 3, 4 h” value (male Sprague-Dawley rats [1]; [3]) was “A (≥375 grams of joint compression)”. For the same molecule, the “joint compression threshold, Day 6, 1 h” value (male Sprague-Dawley rats [1]; [3]) was “B (≥325 and <375 grams of joint compression)”, the “joint compression threshold, Day 6, 2 h” value (male Sprague-Dawley rats [1]; [3]) was “B (≥325 and <375 grams of joint compression)” and the “joint compression threshold, Day 6, 4 h” value (male Sprague-Dawley rats [1]; [3]) was “B (≥325 and <375 grams of joint compression)”. The “joint compression threshold, Day 0, 1 h” value (male Sprague-Dawley rats [1]; oral once daily, 10 mg/kg) was “C (<325 grams of joint compression)”, the “joint compression threshold, Day 0, 2 h” value (male Sprague-Dawley rats [1]; oral once daily, 10 mg/kg) was “C (<325 grams of joint compression)” and the “joint compression threshold, Day 0, 4 h” value (male Sprague-Dawley rats [1]; oral once daily, 10 mg/kg) was “C (<325 grams of joint compression)”. The “joint compression threshold, Day 3, 1 h” value (male Sprague-Dawley rats [1]; oral once daily, 10 mg/kg) was “B (≥325 and <375 grams of joint compression)”, the “joint compression threshold, Day 3, 2 h” value (male Sprague-Dawley rats [1]; oral once daily, 10 mg/kg) was “A (≥375 grams of joint compression)” and the “joint compression threshold, Day 3, 4 h” value (male Sprague-Dawley rats [1]; oral once daily, 10 mg/kg) was “C (<325 grams of joint compression)”. For the same molecule, the “joint compression threshold, Day 6, 1 h” value (male Sprague-Dawley rats [1]; oral once daily, 10 mg/kg) was “B (≥325 and <375 grams of joint compression)”, the “joint compression threshold, Day 6, 2 h” value (male Sprague-Dawley rats [1]; oral once daily, 10 mg/kg) was “B (≥325 and <375 grams of joint compression)” and the “joint compression threshold, Day 6, 4 h” value (male Sprague-Dawley rats [1]; oral once daily, 10 mg/kg) was “A (≥375 grams of joint compression)”. For the same molecule, the “joint compression threshold, Day 0, 1 h” value (male Sprague-Dawley rats [1]; oral once daily, 30 mg/kg) was “B (≥325 and <375 grams of joint compression)”, the “joint compression threshold, Day 0, 2 h” value (male Sprague-Dawley rats [1]; oral once daily, 30 mg/kg) was “B (≥325 and <375 grams of joint compression)” and the “joint compression threshold, Day 0, 4 h” value (male Sprague-Dawley rats [1]; oral once daily, 30 mg/kg) was “B (≥325 and <375 grams of joint compression)”. The “joint compression threshold, Day 3, 1 h” value (male Sprague-Dawley rats [1]; oral once daily, 30 mg/kg) was “B (≥325 and <375 grams of joint compression)”, the “joint compression threshold, Day 3, 2 h” value (male Sprague-Dawley rats [1]; oral once daily, 30 mg/kg) was “B (≥325 and <375 grams of joint compression)” and the “joint compression threshold, Day 3, 4 h” value (male Sprague-Dawley rats [1]; oral once daily, 30 mg/kg) was “B (≥325 and <375 grams of joint compression)”. For the same molecule, the “joint compression threshold, Day 6, 1 h” value (male Sprague-Dawley rats [1]; oral once daily, 30 mg/kg) was “B (≥325 and <375 grams of joint compression)”, the “joint compression threshold, Day 6, 2 h” value (male Sprague-Dawley rats [1]; oral once daily, 30 mg/kg) was “B (≥325 and <375 grams of joint compression)” and the “joint compression threshold, Day 6, 4 h” value (male Sprague-Dawley rats [1]; oral once daily, 30 mg/kg) was “A (≥375 grams of joint compression)”. For the same molecule, the “joint compression threshold, Day 0, 1 h” value (male Sprague-Dawley rats [1]; oral, 100 mg/kg) was “A (≥375 grams of joint compression)”, the “joint compression threshold, Day 0, 2 h” value (male Sprague-Dawley rats [1]; oral, 100 mg/kg) was “A (≥375 grams of joint compression)” and the “joint compression threshold, Day 0, 4 h” value (male Sprague-Dawley rats [1]; oral, 100 mg/kg) was “A (≥375 grams of joint compression)”. For the same molecule, the “50% response threshold, 1 h” value (male Sprague-Dawley rats [2]; 10 mg/kg) was “C (a 50% threshold of <6 grams)”, the “50% response threshold, 2 h” value (male Sprague-Dawley rats [2]; 10 mg/kg) was “C (a 50% threshold of <6 grams)” and the “50% response threshold, 4 h” value (male Sprague-Dawley rats [2]; 10 mg/kg) was “C (a 50% threshold of <6 grams)”. The “50% response threshold, 1 h” value (male Sprague-Dawley rats [2]; 30 mg/kg) was “C (a 50% threshold of <6 grams)”, the “50% response threshold, 2 h” value (male Sprague-Dawley rats [2]; 30 mg/kg) was “C (a 50% threshold of <6 grams)” and the “50% response threshold, 4 h” value (male Sprague-Dawley rats [2]; 30 mg/kg) was “C (a 50% threshold of <6 grams)”. The “50% response threshold, 1 h” value (male Sprague-Dawley rats [2]; 100 mg/kg) was “A (a 50% threshold of ≥8 grams)”, the “50% response threshold, 2 h” value (male Sprague-Dawley rats [2]; 100 mg/kg) was “A (a 50% threshold of ≥8 grams)” and the “50% response threshold, 4 h” value (male Sprague-Dawley rats [2]; 100 mg/kg) was “B (a 50% threshold of ≥6 and <8 grams)”. For the same molecule, the inhibition at 10 µM (Opiate δ2) was 10% and the inhibition at 10 µM (Opiate κ) was -9%.
